Patent US20120251551A1, “Substituted (Heteroarylmethyl)thiohydantoins” (BAYER PHARMA AKTIENGESELLSCHAFT, priority 2009, published 2012)

Target: T1, wild-type human androgen receptor (Homo sapiens, UniProt P10275)
T1 construct: expressed in transfected cells
T1 sequence (P10275 1-920): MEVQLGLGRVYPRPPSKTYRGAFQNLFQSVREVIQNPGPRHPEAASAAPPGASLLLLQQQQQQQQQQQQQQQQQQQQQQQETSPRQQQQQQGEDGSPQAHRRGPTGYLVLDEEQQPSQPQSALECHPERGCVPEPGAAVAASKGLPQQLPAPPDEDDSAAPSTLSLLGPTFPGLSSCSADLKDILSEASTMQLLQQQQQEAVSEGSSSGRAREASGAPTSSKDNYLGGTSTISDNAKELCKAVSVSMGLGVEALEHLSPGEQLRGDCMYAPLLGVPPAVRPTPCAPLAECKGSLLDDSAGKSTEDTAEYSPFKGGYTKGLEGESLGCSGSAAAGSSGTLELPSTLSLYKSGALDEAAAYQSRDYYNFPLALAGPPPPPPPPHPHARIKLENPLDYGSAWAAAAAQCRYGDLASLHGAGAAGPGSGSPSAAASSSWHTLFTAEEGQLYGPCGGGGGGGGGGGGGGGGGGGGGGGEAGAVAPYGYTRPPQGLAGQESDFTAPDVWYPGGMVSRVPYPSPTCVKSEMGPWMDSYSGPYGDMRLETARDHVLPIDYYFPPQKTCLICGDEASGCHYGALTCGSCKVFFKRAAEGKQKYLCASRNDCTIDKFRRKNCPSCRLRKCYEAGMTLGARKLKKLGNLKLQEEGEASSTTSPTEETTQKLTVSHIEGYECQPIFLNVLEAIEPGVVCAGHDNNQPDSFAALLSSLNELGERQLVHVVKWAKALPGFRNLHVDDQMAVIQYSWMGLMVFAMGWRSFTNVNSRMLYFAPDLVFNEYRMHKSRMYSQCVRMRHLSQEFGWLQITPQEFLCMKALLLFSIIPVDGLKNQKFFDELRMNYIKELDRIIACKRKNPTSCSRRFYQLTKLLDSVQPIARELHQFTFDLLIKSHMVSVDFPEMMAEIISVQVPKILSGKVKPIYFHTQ
Assay: Cell-based transactivation assay for wild-type human androgen receptor (PC-3 cells, MMTV-luciferase reporter)

**Q.** With `COCCOc1ccc(CN2C(=S)N(c3ccc(C#N)c(C(F)(F)F)c3)C(=O)C2(C)C)cn1` [Example 11, 4-(3-{[6-(2-Methoxyethoxy)pyridin-3-yl]methyl}-4,4-dimethyl-5-oxo-2-thioxoimidazolidin-1-yl)-2-(trifluoromethyl)benzonitrile] as the molecule, how does the EC50 read?
**A.** Its EC50 is > 10 µM.

**Q.** `CN1CCCN(c2ccc(CN3C(=S)N(c4ccc(C#N)c(C(F)(F)F)c4)C(=O)C3(C)C)cn2)CC1` [Example 12, 4-(4,4-Dimethyl-3-{[6-(4-methyl-1,4-diazepan-1-yl)pyridin-3-yl]methyl}-5-oxo-2-thioxoimidazolidin-1-yl)-2-(trifluoromethyl)benzonitrile] was tested. Which EC50 did it give?
**A.** Its EC50 is > 10 µM.

**Q.** For `CC1(C)C(=O)N(c2ccc(C#N)c(C(F)(F)F)c2)C(=S)N1Cc1ccc(N2CCC(CO)CC2)nc1` [Example 14, 4-[3-({6-[4-(Hydroxymethyl)piperidin-1-yl]pyridin-3-yl}methyl)-4,4-dimethyl-5-oxo-2-thioxoimidazolidin-1-yl]-2-(trifluoromethyl)benzonitrile], which EC50 is on record?
**A.** Its EC50 is 6 µM.

**Q.** `Cc1ccnn1-c1ccc(CN2C(=S)N(c3ccc(C#N)c(C(F)(F)F)c3)C(=O)C2(C)C)cn1` [Example 27, 4-(4,4-Dimethyl-3-{[6-(5-methyl-1H-pyrazol-1-yl)pyridin-3-yl]methyl}-5-oxo-2-thioxoimidazolidin-1-yl)-2-(trifluoromethyl)benzonitrile] was tested. Which EC50 did it give?
**A.** The EC50 was > 10 µM.

**Q.** How did the EC50 turn out when `CC1(C)C(=O)N(c2ccc(C#N)c(C(F)(F)F)c2)C(=S)N1Cc1ccc(OCC(F)(F)CO)nc1` [Example 28, 4-(3-{[6-(2,2-Difluoro-3-hydroxypropoxy)pyridin-3-yl]methyl}-4,4-dimethyl-5-oxo-2-thioxoimidazolidin-1-yl)-2-(trifluoromethyl)benzonitrile] was run?
**A.** The EC50 was > 10 µM.

**Q.** Which EC50 does the source give for `CC1(C)C(=O)N(c2ccc(C#N)c(C(F)(F)F)c2)C(=S)N1Cc1ccc(-n2ccnn2)nc1` [Example 29, 4-(4,4-Dimethyl-5-oxo-2-thioxo-3-{[6-(1H-1,2,3-triazol-1-yl)pyridin-3-yl]methyl}imidazolidin-1-yl)-2-(trifluoromethyl)benzonitrile] here?
**A.** The EC50 was > 10 µM.

**Q.** `CC1(C)C(=O)N(c2ccc(C#N)c(C(F)(F)F)c2)C(=S)N1Cc1ccc(-n2nccn2)nc1` [Example 30, 4-(4,4-Dimethyl-5-oxo-2-thioxo-3-{[6-(2H-1,2,3-triazol-2-yl)pyridin-3-yl]methyl}imidazolidin-1-yl)-2-(trifluoromethyl)benzonitrile] was tested. Which EC50 did it give?
**A.** The EC50 was > 10 µM.

**Q.** `CC1(C)C(=O)N(c2ccc(C#N)c(C(F)(F)F)c2)C(=S)N1Cc1ccc(-n2cnc(Cl)c2Cl)nc1` [Example 32, 4-(3-{[6-(4,5-Dichloro-1H-imidazol-1-yl)pyridin-3-yl]methyl}-4,4-dimethyl-5-oxo-2-thioxoimidazolidin-1-yl)-2-(trifluoromethyl)benzonitrile] was tested. Which EC50 did it give?
**A.** The EC50 was > 10 µM.

**Q.** With `CC1(C)C(=O)N(c2ccc(C#N)c(C(F)(F)F)c2)C(=S)N1Cc1ccc(-n2cnc(C(F)(F)F)n2)nc1` [Example 33, 4-[4,4-Dimethyl-5-oxo-2-thioxo-3-({6-[3-(trifluoromethyl)-1H-1,2,4-triazol-1-yl]pyridin-3-yl}methyl)imidazolidin-1-yl]-2-(trifluoromethyl)benzonitrile] as the molecule, how does the EC50 read?
**A.** Its EC50 is > 10 µM.
